Results taken from US20250268876A1, “TREATMENT OF HIDRADENITIS SUPPURATIVA WITH ORISMILAST” (UNION THERAPEUTICS A/S, priority 2021, published 2025).
Several values for one entry are separate records, joined by “and”; a condition that tells them apart may be missing. Equal values may be shown once. Read-outs that look alike come from different tables or passages of the source. Marks after values point to notes of the source that are not given here.

Columns and labels:
[1] = test system: TNF-α secretion from human whole blood; assay: Whole blood TNF-α secretion assay (LPS or SEB); type: cell-based
[2] = test system: Hidradenitis suppurativa (HS); conditions: two phase II studies, moderate HS; none of the patients in the placebo group; cited from earlier work
[3] = test system: conscious, unrestrained ferret; conditions: in vivo, po, 1 mg/kg
Emesis study in ferrets = conditions: ferret, in vivo, po
TNF-α = assay: LPS-induced TNF-α in ferrets after single oral administration; conditions: oral 1 and 3 mg/kg; 1 hour after LPS (3 mg/kg ip)
[4] = Homo sapiens, 24 h, SEB 1 μg/mL, 24 hours, donor 1, read-out: Emax
[5] = Homo sapiens, 48 h, SEB 1 μg/mL, 48 hours, donor 1, read-out: Emax
[6] = Homo sapiens, 48 h, SEB 1 μg/mL, 48 hours, donor 2, read-out: Emax

Work on `C[C@@H]1CCN(C(=O)CC#N)C[C@@H]1N(C)c1ncnc2[nH]ccc12` [Tofacitinib] yielded an Emax [1, 4] of 98%, an Emax [1, 5] of 95% and an Emax [1, 6] of 102%. For the same compound, the “Effect on TNF-α secretion (in words)” value ([1]; LPS 1 μg/mL, 24 hours) was “Stimulation”, the “Effect on TNF-α secretion (in words)” value ([1]; LPS 1 μg/mL, 48 hours) was “Stimulation” and the Emax ([1]; SEB 1 μg/mL, 24 hours, donor 2) was 100*.
Work on `CCOc1cc([C@@H](CS(C)(=O)=O)N2C(=O)c3cccc(NC(C)=O)c3C2=O)ccc1OC` [Apremilast] yielded an Emax ([1]; Homo sapiens, 24 h, LPS 1 μg/mL, 24 hours, donor 1, Emax defined as TNF-α level in un-stimulated wells, read-out: Emax) of 74%, an EC50 ([1]; Homo sapiens, 24 h, LPS 1 μg/mL, 24 hours, donor 1, read-out: EC50) of 210 nM and an EC50 ([1]; Homo sapiens, 24 h, LPS 1 μg/mL, 24 hours, donor 2, read-out: EC50) of 283 nM. It also gave an Emax ([1]; Homo sapiens, 24 h, LPS 1 μg/mL, 24 hours, donor 2, read-out: Emax) of 79%, an Emax [1, 4] of 98% and an EC50 ([1]; Homo sapiens, 24 h, SEB 1 μg/mL, 24 hours, donor 2, read-out: EC50) of 620 nM. The Emax ([1]; Homo sapiens, 24 h, SEB 1 μg/mL, 24 hours, donor 2, read-out: Emax) was 65%, the EC50 ([1]; Homo sapiens, 48 h, LPS 1 μg/mL, 48 hours, donor 1, read-out: EC50) was 277 nM and the Emax ([1]; Homo sapiens, 48 h, LPS 1 μg/mL, 48 hours, donor 1, read-out: Emax) was 77%. For the same compound, the EC50 ([1]; Homo sapiens, 48 h, LPS 1 μg/mL, 48 hours, donor 2, read-out: EC50) was 364 nM, the Emax ([1]; Homo sapiens, 48 h, LPS 1 μg/mL, 48 hours, donor 2, read-out: Emax) was 78% and the EC50 ([1]; Homo sapiens, 48 h, SEB 1 μg/mL, 48 hours, donor 1, read-out: EC50) was 155 nM. It also gave an Emax [1, 5] of 97%, an EC50 ([1]; Homo sapiens, 48 h, SEB 1 μg/mL, 48 hours, donor 2, read-out: EC50) of 573 nM and an Emax [1, 6] of 80%. For the same compound, the EC50 ([1]; Homo sapiens, mean of 8 determinations (LPS and SEB, 24 and 48 hours, 2 donors), read-out: Geometric mean of EC50 values across different assay parameters) was 287 nM and 0.132 µg/mL and the “treated patients with a positive HS clinical response (HiSCR)” value [2] was “more than 50%”.
With `O=C(Nc1c(Cl)cncc1Cl)c1ccc(OC(F)F)c(OCC2CC2)c1` [Roflumilast] the Emetogenic properties [3] was “absent”, the NOAEL at 3 h (Emesis study in ferrets) was 1 mg/kg and the “increase of TNF-α levels observed at 1 hour” value (TNF-α) was “attenuated in a dose-related manner”.
Work on `O=C(Nc1c(Cl)c[n+]([O-])cc1Cl)c1ccc(OC(F)F)c(OCC2CC2)c1` [Roflumilast N-oxide] yielded an Emax ([1]; LPS 1 μg/mL, 24 hours, donor 1, Emax defined as TNF-α level in un-stimulated wells) of 72, an EC50 ([1]; LPS 1 μg/mL, 24 hours, donor 1, read-out: EC50) of 23.4 nM and an Emax ([1]; LPS 1 μg/mL, 24 hours, donor 2) of 79. For the same compound, the EC50 ([1]; LPS 1 μg/mL, 24 hours, donor 2, read-out: EC50) was 24 nM, the Emax ([1]; LPS 1 μg/mL, 48 hours, donor 1) was 75 and the EC50 ([1]; LPS 1 μg/mL, 48 hours, donor 1, read-out: EC50) was 38.6 nM. For the same compound, the Emax ([1]; LPS 1 μg/mL, 48 hours, donor 2) was 78, the EC50 ([1]; LPS 1 μg/mL, 48 hours, donor 2, read-out: EC50) was 35 nM and the Emax ([1]; SEB 1 μg/mL, 24 hours, donor 1) was 97. It also gave an EC50 ([1]; SEB 1 μg/mL, 24 hours, donor 1, read-out: EC50) of 8.69 nM, an Emax ([1]; SEB 1 μg/mL, 24 hours, donor 2) of 66 and an EC50 ([1]; SEB 1 μg/mL, 24 hours, donor 2, read-out: EC50) of 35.6 nM. The Emax ([1]; SEB 1 μg/mL, 48 hours, donor 1) was 97, the EC50 ([1]; SEB 1 μg/mL, 48 hours, donor 1, read-out: EC50) was 4.77 nM and the Emax ([1]; SEB 1 μg/mL, 48 hours, donor 2) was 80. The EC50 ([1]; SEB 1 μg/mL, 48 hours, donor 2, read-out: EC50) was 33.4 nM, the “Geometric mean of EC50 values across different assay parameters” value ([1]; mean of 8 determinations (LPS and SEB, 24 and 48 hours, 2 donors)) was 8.80 ng/mL and the EC50 ([1]; mean of 8 determinations (LPS and SEB, 24 and 48 hours, 2 donors), read-out: Geometric mean of EC50 values across different assay parameters) was 21 nM.
